Assays:
pendrin = experiment: Protein expression measurement in IL-4-treated HNE cells, pendrin; assay type: cell-based, human; conditions: long-term treatment
Method: CHO-K1 and HNE cells were lysed with a cytolytic buffer (50 mM Tris-HCl, pH 7.4, 1% Nonidet P-40, 0.25% sodium deoxycholate, 150 mM NaCl, 1 mM EDTA, 1 mM Na3VO4, and protease inhibiting mixture). The total cell lysates were under centrifugation at 15,000×g for 10 minutes at 4° C. to remove cellular debris and the same amount (50 μg protein or 5 μg protein/lane) of supernatant protein was isolated on 4-12% Tris-glycine precast gel (KOMA BIOTECH, Seoul, Korea) and transferred to PVDF membrane (Millipore, Billerica, MA, USA). The membrane was blocked with 5% fat-free skim milk in TBS containing 0.1% Tween 20 (TBST) or 5% bovine serum albumin in TBS at a room temperature for 1 hour. Then, the membrane was cultured at 4° C. overnight with a primary antibody against pendrin (sc-50346; Santa Cruz Biotechnology, Santa Cruz, CA, USA), NF-κB p65 (4764S; Cell Signaling Technology, Danvers, MA, USA), p-NF-κB p65 (3033S; Cell Signaling Technology), IkBα (9242S; Cell Signaling Technology), p-IkBα (9141S; Cell Signaling Technology), β-actin (sc-47778; Santa Cruz Biotechnology), or AN01 (ab64085; Abeam). After washing with 0.05% Tween 20 (TBST) in PBS, the blot was additionally cultured with a secondary antibody (Cell Signaling Technology, Danvers, MA) at a room temperature for 60 minutes. […]

NF-κ = experiment: IVIS lung fluorescence in LPS-treated NF-κ reporter/SPC-Cre-ERT2 mice; assay type: in vivo, mouse; conditions: 10 mg/kg i.p., 6 hours after LPS
From the text: From Orient Bio (Sungnam, Republic of Korea), 8-10-week-old wild-type male C57BL/6J mice having a body weight of 20-24 g were purchased. Food and water were provided to all the animals, and the similar optical cycle of day and night was applied. Transfected NF-κ reporter/SPC-Cre-ERT2 mice were used for IVIS in the present invention. Briefly, NF-κ reporter mice contain ROSA26 lox-STOP-lox-cassette inserted between a promoter and NF-κ gene. In general, a stop gene is positioned between loxP and loxP, and NF-κ is not expressed. NF-κ reporter/SPC-Cre-ERT2 mice were obtained by raising ROSA26R mice to surfactant protein C(SPC)-Cre-ERT2 mice. The Cre-ERT2 recombinase activity in these transfected mice was induced by tamoxifen. These NF-κ reporter/SPC-Cre-ERT2 mice express NF-κ activity in the alveolar epithelium by one of dTomato fluorescence or luciferase in presence of tamoxifen. […]
Imaging of living animals and organs was performed using IVIS […] imaging system Caliper Life Sciences, Preston Brook Runcorn, UK). […] Fluorescence excite light was provided by a halogen lamp combined with an appropriate excite filter. […] The fluorescence imaging was obtained with an excitation wavelength of 554 nm and an emission wavelength of 581 nm (dTomato). […] In Living Image software (version 3.2, Caliper Life Sciences), using an area of interest tool, fluorescence was quantified.

## CC(C)(C)c1ccc(C2=NC(=Cc3cccs3)C(=O)O2)cc1 [F56, 2-(4-(tert-butyl)phenyl)-4-(thiophen-2-ylmethylene)oxazol-5(4H)-one]
pendrin
  pendrin protein expression level: strongly reduced
Stability statements
  chemical stability: chemically stable
NF-κ
  fluorescence of the excised lung (NF-κ activation): inhibited

— patent publication US12691101B2, “Compound and method for preventing or treating of respiratory diseases comprising the same as an active ingredient” (YONSEI UNIVERSITY, UNIVERSITY - INDUSTRY FOUNDATION (UIF), priority 2019, dated 2026)
